The text below walks through data of patent publication US20070129419A1, “Serotonin transporter (SERT) inhibitors for the treatment of depression and anxiety” (priority 2005, published 2007).

Where two headings read alike, the source gives them in different places.

One assay deals with T1, recombinant human SERT (Homo sapiens, UniProt P31645).
T1 construct: expressed in transfected cells; membrane preparation
Description: hSERT SPA binding assay ([3H]citalopram displacement, HEK-293 membranes). The procedure: HEK-293 cells stably expressing recombinant human SERT are maintained with DMEM high glucose with 10% FBS, 300 μg/ml G418 and 2 mM L-Glutamine and incubated at 37° C. with 5% CO2. Cells are released from culture flasks using PBS for 1-2 min. The cells are subsequently centrifuged at 1000 g's for 5 min and resuspended in PBS prior to being used in the membrane preparation.
Cells are homogenized using a Polytron in 50 mM Tris (pH 7.4). Centrifuged at 48,000×g for 15 min, and the pellet resuspended in fresh buffer. After a second centrifugation, the pellet is re-homogenized and resuspended in fresh buffer. Typically, membrane portions are aliquoted in 3 mg/ml (w:v). and stored at −80° C.
A serial dilution of test compounds in 50 mM Tris-HCl, 120 mM NaCl, KCl 5 mM (pH 7.4) is made in a white Optiplate (Packard) (100 μl/well) and the radioligand ^3[H] Citalopram (Specific activity: 60-86 Ci/mmol, Final concentration: 1 nM) is added at 50 μl/well. Membrane and beads are prepared to a ratio of 5 μg:0.6 mg, with 0.6 mg PVT-WGA Amersham beads (Cat#RPQ0282V) added per well. 50 μl of the membrane/bead mixture is added to the assay plate for a final volume of 200 μl. The mixtures are allowed to stand at room temperature for one hour, and are then counted on a Packard TopCount.
The % inhibition is calculated for each compound tested (with 100% binding being the value obtained with the incubation of membrane/beads and radioligand in buffer without compound minus the non-specific binding measured in presence of 10 μM Fluoxetine). The concentration producing 50% inhibition (IC50) is determined using an iterative non-linear curve fitting technique. The inhibition dissociation constant (Ki) of each compound is determined according to the method of Cheng-Prusoff, decribed in Biochem. Pharmacol., 1973, 22(23), pages 3099-3108.

The next assay concerns the target T2, human NK-1 receptor (Homo sapiens, UniProt P25103).
T2 construct: expressed in transfected cells; host or cells: CHO cells, Semliki virus expression system; membrane suspension
Description: hNK-1 binding assay ([3H]substance P displacement, CHO cells). As to conditions: [3H]substance P 0.6 nM, CHO cells transfected with human NK-1 receptor; read-out: pKi hNK1 (converted). The procedure: The affinity of test compounds for the NK-1 receptor was evaluated at human NK-1 receptors in CHO cells transfected with the human NK-1 receptor using the Semliki virus expression system and radiolabelled with [^3H]substance P (final concentration 0.6 nM). Binding assays were performed in HEPES buffer (50 mM, pH 7.4) containing BSA (0.04%) leupeptin (8 μg/ml), MnCl2 (3 mM) and phosphoramidon (2 μM). Binding assays consisted of 250 μl of membrane suspension (1.25×10^5 cells/assay tube), 125 μl of buffer of displacing agent and 125 μl of [^3H]substance P. Displacement curves were determined with at least ten concentrations of the compound. The assay tubes were incubated for 60 min at room temperature after which time the tube contents were rapidly filtered under vacuum through GF/C filters presoaked for 60 min with PEI (0.3%) with 2×2 ml washes of HEPES buffer (50 mM, pH 7.4). The radioactivity retained on the filters was measured by scintillation counting. All assays were performed in duplicate in at least 2 separate experiments.
The inhibition dissociation constant (Ki) of each compound for NK1 is determined as described above for hSERT.

[1] abbreviates: [3H]citalopram 1 nM, HEK-293 membranes expressing human SERT, read-out: pKi hSERT (converted).

T2 sequence (P25103 whole entry): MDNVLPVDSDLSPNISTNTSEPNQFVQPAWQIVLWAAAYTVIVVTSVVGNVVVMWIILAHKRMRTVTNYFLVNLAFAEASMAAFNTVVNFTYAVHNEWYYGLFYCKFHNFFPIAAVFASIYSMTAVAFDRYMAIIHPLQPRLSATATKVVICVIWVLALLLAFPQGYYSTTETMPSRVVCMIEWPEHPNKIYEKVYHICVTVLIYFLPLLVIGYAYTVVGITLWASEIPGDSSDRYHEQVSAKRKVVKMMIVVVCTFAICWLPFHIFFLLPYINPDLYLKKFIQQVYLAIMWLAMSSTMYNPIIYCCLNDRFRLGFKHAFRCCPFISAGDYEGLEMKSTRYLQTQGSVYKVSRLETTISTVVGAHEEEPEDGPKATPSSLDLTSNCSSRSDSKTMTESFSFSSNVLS
T1 sequence (P31645 whole entry): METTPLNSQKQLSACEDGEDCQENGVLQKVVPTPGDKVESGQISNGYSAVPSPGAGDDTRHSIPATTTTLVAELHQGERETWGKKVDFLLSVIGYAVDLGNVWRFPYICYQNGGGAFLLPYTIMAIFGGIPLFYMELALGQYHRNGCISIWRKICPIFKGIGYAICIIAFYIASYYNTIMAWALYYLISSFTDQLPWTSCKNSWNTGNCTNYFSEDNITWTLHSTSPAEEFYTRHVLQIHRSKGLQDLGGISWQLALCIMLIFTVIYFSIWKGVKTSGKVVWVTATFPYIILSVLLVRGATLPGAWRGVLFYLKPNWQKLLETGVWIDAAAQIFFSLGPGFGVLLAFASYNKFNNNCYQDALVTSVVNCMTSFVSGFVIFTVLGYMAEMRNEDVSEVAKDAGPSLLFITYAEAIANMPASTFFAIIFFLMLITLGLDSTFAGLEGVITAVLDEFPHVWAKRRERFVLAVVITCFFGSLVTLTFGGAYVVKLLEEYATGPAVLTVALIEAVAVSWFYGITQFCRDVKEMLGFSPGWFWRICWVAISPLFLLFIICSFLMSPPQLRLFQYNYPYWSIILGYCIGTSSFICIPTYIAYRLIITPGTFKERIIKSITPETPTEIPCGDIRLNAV

Turning to `Fc1ccc([C@@H]2CNC[C@@H]2COCc2cc(C(F)(F)F)cc(C(F)(F)F)c2)cc1` [1 of I], the values for the Ki on recombinant human SERT and on human NK-1 receptor were 2.75 nM and 295 nM, respectively.
With `Fc1cccc([C@@H]2CNC[C@@H]2COCc2cc(C(F)(F)F)cc(C(F)(F)F)c2)c1` [2 of I], the Ki at recombinant human SERT (setting [1]) was 5.89 nM; at human NK-1 receptor it was 46.8 nM.
For `Fc1ccccc1[C@@H]1CNC[C@@H]1COCc1cc(C(F)(F)F)cc(C(F)(F)F)c1` [3 of I] the same measures were 3.47 nM and 50.1 nM.
As for `FC(F)(F)c1cc(COC[C@H]2CNC[C@H]2c2ccc(Cl)cc2)cc(C(F)(F)F)c1` [4 of I], the Ki on recombinant human SERT (setting [1]) is 4.47 nM; on human NK-1 receptor it was 53.7 nM.
On the same counts, the results for `FC(F)(F)c1cc(COC[C@H]2CNC[C@H]2c2cccc(Cl)c2)cc(C(F)(F)F)c1` [5 of I] are 8.13 nM and 31.6 nM.
On the same counts, the results for `FC(F)(F)c1cc(COC[C@H]2CNC[C@H]2c2ccccc2Cl)cc(C(F)(F)F)c1` [6 of I] are 10.2 nM and 43.7 nM.
For `Cc1ccccc1[C@@H]1CNC[C@@H]1COCc1cc(C(F)(F)F)cc(C(F)(F)F)c1` [7 of I] the same measures were 7.59 nM and 28.8 nM.
As for `FC(F)(F)c1cc(COC[C@H]2CNC[C@H]2c2ccccc2)cc(C(F)(F)F)c1` [8 of I], the figures for the Ki on recombinant human SERT (setting [1]) and on human NK-1 receptor were 4.9 nM and 43.7 nM, respectively.
For `Brc1cc(Br)cc(COC[C@H]2CNCC2c2ccccc2)c1` (stereo partly shown) [9 of I] the same measures were 5.89 nM and 41.7 nM.
On the same counts, the results for `Cc1cc(C)cc(COC[C@H]2CNC[C@H]2c2ccccc2)c1` [10 of I] are 4.57 nM and 257 nM.
For `Fc1cc(COC[C@H]2CNC[C@H]2c2ccccc2)cc(C(F)(F)F)c1` [11 of I] the same measures were 5.75 nM and 224 nM.
Take `FC(F)(F)c1cccc(COC[C@H]2CNC[C@H]2c2ccccc2)c1` [12 of I]: the Ki is 11 nM at recombinant human SERT (setting [1]) and 676 nM on human NK-1 receptor.
For `FC(F)(F)Oc1cccc(COC[C@H]2CNC[C@H]2c2ccccc2)c1` [13 of I] the same measures were 13.8 nM and 759 nM.
On the same counts, the results for `COc1cc(COC[C@H]2CNC[C@H]2c2ccccc2)cc(OC)c1` [14 of I] are 20.4 nM and 741 nM.
For the compound `FC(F)(F)c1ccccc1COC[C@H]1CNC[C@H]1c1ccccc1` [15 of I], the figures for the Ki at recombinant human SERT (setting [1]) and on human NK-1 receptor were 70.8 nM and 646 nM, respectively.
For the compound `FC(F)(F)c1cc(CNC[C@H]2CNC[C@H]2c2ccccc2)cc(C(F)(F)F)c1` [16 of I], the Ki at recombinant human SERT (setting [1]) was 22.9 nM; on human NK-1 receptor it was 26.3 nM.
On the same counts, the results for `CN(Cc1cc(C(F)(F)F)cc(C(F)(F)F)c1)C[C@H]1CNC[C@H]1c1ccccc1` [17 of I] are 8.13 nM and 31.6 nM.
